Laboratory results reported in patent US5468486A, “Vaccine containing a protein alkaloid conjugate for the treatment of fescue toxicosis” (priority 1994, dated 1995).

Test system: antiserum produced against the ergonovine KLH conjugate
Assay: Competitive ELISA
Format: binding, rabbit
Details: for Concentration (ng/ml) of 50% A (A50) / IC50: predicted value for 50% maximal absorbance, linear regression, antiserum 1:1000, HSA-ergonovine coated plates; for IC50: read-out: Concentration (μM) of 50% A; for Cross Reactivity (%): relative to ergonovine
Experimental: Antiserum preparation: Three female New Zealand white rabbits were immunized with the HSA-ergonovine conjugate and two with the KLH-ergonovine conjugate. Initially, each rabbit was injected with 1 mg of the respective conjugate in 1 ml of phosphate buffered saline that had been emulsified with an equal amount of Freund's complete adjuvant. Booster injections of 0.2 mg of conjugate per rabbit, emulsified with Freund's incomplete adjuvant, were given at 5 and 10 weeks after the first injections. The rabbits were bled 8 and 16 days after each booster injection. Serum was collected after two cycles of low speed centrifugation. Serum from each rabbit was pooled before testing in the competitive enzyme linked immunosorbent assay (ELISA).
Competitive ELISA: Duplicate polystyrene ELISA plates were numbered and rinsed once with distilled water. The HSA-ergonovine conjugate [[…] in carbonate coating buffer (0.5μsodium carbonate, pH 9.6)] was pipetted into each well ([…]). After 2H at 30° C. the plates were washed 4 times quickly with physiologically buffered saline (PBS) Tween (0.02M phosphate, 0.15M NaCl, 3 mM KC1+0.05% TWEEN 20, pH 7.3). All subsequent rinse steps were done with PBS-Tween. Serial dilutions were made of […] compounds used in the competitive assay. All dilutions were made in PBS-Tween. These compounds and their initial concentrations were: agroclavine 0.5 mM, ergocryptine at 100 μM, unconjugated ergonovine at 1 μM, ergotamine at 100 μM, ergovaline at 10 μM, lysergol at 10 mM, dihydroergotamine at 200 μM and IAA at 1 mM. After placing 100 μl of each dilution in duplicate wells, an additional 100 μl of antiserum, produced against the ergonovine KLH conjugate, was added to each well at a dilution of 1:1000 and mixed. The plates were incubated for 2 H at 30° C. and again rinsed 4 times quickly. Protein-A alkaline phosphatase (0.5 μg/ml in PBS-Tween) was placed in wells (200 μl/well) and incubated for 2 H at 30° C. The plates were again rinsed 4 times. Substrate, SIGMA 104® phosphatase substrate (5 mg/ml), in 10% diethanolamine, pH 9.6 was added to each well (150 μl/well). The reaction was stopped after 30 min. with 3M NaOH (75 μl/well). The plates were read on a DYNATECH MINIREADER II® reader. Mean values were calculated from duplicate wells per plate and duplicate plates were averaged. From these values a percent maximal absorbance level was calculated.

Compound | Concentration (ng/ml) of 50% A (A50) [ng/mL] | Concentration (ng/ml) of 50% A (A50) (listed as ergocrytine) | IC50 [µM] | Cross Reactivity (%) | Cross Reactivity (%) (listed as ergocrytine) | Concentration (ng/ml) of 50% A (A50) (listed as Ergovaline) | Cross Reactivity (%) (listed as Ergovaline) | Cross Reactivity (%) (listed as Lysergol)
CC(C)C[C@H]1C(=O)N2CCC[C@H]2[C@]2(O)O[C@](NC(=O)[C@@H]3C=C4c5cccc6[nH]cc(c56)C[C@H]4N(C)C3)(C(C)C)C(=O)N12 [ergocryptine] | 33 | below 100 ng/ml | 0.59 | 5 | ≥ 2 |  |  | 
CC(C)[C@H]1C(=O)N2CCC[C@H]2[C@]2(O)O[C@@](C)(NC(=O)[C@@H]3C=C4c5cccc6[nH]cc(c56)C[C@H]4N(C)C3)C(=O)N12 [ergovaline] | 8 |  | 0.15 | 20 |  | below 100 ng/ml | ≥ 2 | 
CN1C[C@H](C(=O)N[C@]2(C)O[C@@]3(O)[C@@H]4CCCN4C(=O)[C@H](Cc4ccccc4)N3C2=O)C[C@@H]2c3cccc4[nH]cc(c34)C[C@H]21 [dihydroergotamine] | 6833 |  |  |  |  |  |  | 
CC1=C[C@@H]2c3cccc4[nH]cc(c34)C[C@H]2N(C)C1 [agroclavine] |  |  | 3.2 |  |  |  |  | 
C[C@@H](CO)NC(=O)[C@@H]1C=C2c3cccc4[nH]cc(c34)C[C@H]2N(C)C1 [ergonovine] | 1.6 |  | 0.05 | 100 |  |  |  | 
CN1C[C@H](C(=O)N[C@]2(C)O[C@@]3(O)[C@@H]4CCCN4C(=O)[C@H](Cc4ccccc4)N3C2=O)C=C2c3cccc4[nH]cc(c34)C[C@H]21 [ergotamine] |  |  | 0.4 |  |  |  |  | 
CN1C[C@H](CO)C=C2c3cccc4[nH]cc(c34)C[C@H]21 [lysergol] | 940 |  | 3.7 | 4 |  |  |  | less than 1%
